This note sets out measurements from patent US20210346368A1, “ANTIBIOTIC SOLUTION AND METHOD OF INJECTION TO PREVENT OPHTHALMIC INFECTIONS” (priority 2017, published 2021).

The assay in a line: injection of moxifloxacin antibiotic solution into the anterior segment of the eye during surgery to prevent endophthalmitis. The format is in vivo. As for the experimental part: Further details regarding the structure, preparation, and physical properties of moxifloxacin are provided in U.S. Pat. Nos. 4,990,517 and 5,607,942, and German application DE19937116, all of which are incorporated herein by reference. In one embodiment, the antibiotic solution may comprise […] of cyanocobalamin, or an amount sufficient to tint or color the resulting antibiotic solution. The antibiotic solution may further comprise any suitable carrier fluid (e.g., liquid diluents such as water, ethyl alcohol, or propylene glycol), so long as the resulting solution has osmotic values that are compatible with the aqueous humor of the eye and ophthalmic tissues. In one embodiment, the antibiotic solution is prepared and stored in a single-dose vial, without the need for preservatives. This allows the surgeon to provide an accurate concentration in sterile environments. Further, due to the antibiotic solution comprising cyanocobalamin, the resulting antibiotic solution is red in color. This provides a visual enhancement to the surgeon when injecting into the eye. For example, a surgeon would inject around 0.3 milliliters of the antibiotic solution (e.g., solution comprising moxifloxacin and cyanocobalamin) into the anterior segment of the eye during the intraoperative portion of cataract surgery. […]

In the case of `COc1c(N2C[C@@H]3CCCN[C@@H]3C2)c(F)cc2c(=O)c(C(=O)O)cn(C3CC3)c12` [moxifloxacin], the “effectiveness (preliminary results)” value (200 micrograms to 600 micrograms of moxifloxacin injected into the eye) was “effective”. The risk of endophthalmitis result (moxifloxacin injected into the anterior segment of the eye) is on record as “significantly reduced or eliminated altogether”.
